Measurements published in publication PMC9851200, “Multiparameter phenotypic screening for endogenous TFEB and TFE3 translocation identifies novel chemical series modulating lysosome function” (Autophagy, 2022).
Like-named read-outs stand apart in the source and are kept apart here.

How the values were obtained:
Conditions in all cases: PKIS2 primary screening
endogenous TFEB = assay: TFEB nuclear translocation, immunocytochemistry high-content imaging; format: cell-based
endogenous TFE3 = assay: TFE3 nuclear translocation, immunocytochemistry high-content imaging; format: cell-based
SH-SY5Y cells [1] = tested on: SH-SY5Y cells; also: reference of the scale not given here
SH-SY5Y cells [2] = assay: AK (adenylate kinase) release ToxiLight cytotoxicity assay; also: reference of the scale not given here
SH-SY5Y cells [3] = assay: Nuclear count from microscopy images (cellular growth and toxicity); also: reference of the scale not given here

`COc1cc(Nc2nccc(N3CCC(NC(=O)c4cc5ccccc5s4)C3)n2)cc(OC)c1OC` (stereo not drawn) [GSK1379760] was tested, and the TFEB % (endogenous TFEB) was 5.00%, the TFE3 % (endogenous TFE3) was 8.33% and the “DQ Intensity” value (SH-SY5Y cells [1]; DQ Red BSA intensity) was 67.71. The “DQ Spot” value (SH-SY5Y cells [1]; DQ Red BSA spot count) was 93.69, the AK (SH-SY5Y cells [2]) was 89.79 and the “Nuclear Count” value (SH-SY5Y cells [3]) was 107.53.

`C[C@@H]1CC[C@H](C(=O)NC2CCCCC2)CN1c1cc(-c2ccc3c(N)n[nH]c3c2)nc(N)n1` [GSK2291363] was tested, and the TFEB % (endogenous TFEB) was 3.73%, the TFE3 % (endogenous TFE3) was 16.02% and the “DQ Intensity” value (SH-SY5Y cells [1]; DQ Red BSA intensity) was 117.06. For the same molecule, the “DQ Spot” value (SH-SY5Y cells [1]; DQ Red BSA spot count) was 112.54, the AK (SH-SY5Y cells [2]) was 87.12 and the “Nuclear Count” value (SH-SY5Y cells [3]) was 117.58.

`NC(=O)c1cccc(Nc2nccc(Nc3ccc(Oc4c(Cl)cccc4Cl)c(Cl)c3)n2)c1` [GW659009] was tested, and the TFEB % (endogenous TFEB) was 6.80%, the TFE3 % (endogenous TFE3) was 20.40% and the “DQ Intensity” value (SH-SY5Y cells [1]; DQ Red BSA intensity) was 60.26. The “DQ Spot” value (SH-SY5Y cells [1]; DQ Red BSA spot count) was 79.24, the AK (SH-SY5Y cells [2]) was 74.50 and the “Nuclear Count” value (SH-SY5Y cells [3]) was 101.88.

With `COc1ccc(CNC(=O)NC2CCN(c3ccnc(Nc4ccc(F)cc4)n3)CC2)cc1` [GSK1379788] the TFEB % (endogenous TFEB) was 3.80%, the TFE3 % (endogenous TFE3) was 14.89% and the “DQ Intensity” value (SH-SY5Y cells [1]; DQ Red BSA intensity) was 86.32. For the same molecule, the “DQ Spot” value (SH-SY5Y cells [1]; DQ Red BSA spot count) was 97.11, the AK (SH-SY5Y cells [2]) was 114.99 and the “Nuclear Count” value (SH-SY5Y cells [3]) was 82.62.

With `N#CCc1ccc(Nc2nccc(Nc3ccc(Oc4ccccc4)cc3)n2)cc1` [GW639905] the TFEB % (endogenous TFEB) was 8.66%, the TFE3 % (endogenous TFE3) was 15.01% and the “DQ Intensity” value (SH-SY5Y cells [1]; DQ Red BSA intensity) was 108.02. For the same molecule, the “DQ Spot” value (SH-SY5Y cells [1]; DQ Red BSA spot count) was 113.65, the AK (SH-SY5Y cells [2]) was 115.45 and the “Nuclear Count” value (SH-SY5Y cells [3]) was 107.11.

`Cc1ccccc1COc1cc(-n2cnc3cc(Cl)ccc32)sc1C(N)=O` [UNC10225491A] was tested, and the TFEB % (endogenous TFEB) was 9.14%, the TFE3 % (endogenous TFE3) was 6.85% and the “DQ Intensity” value (SH-SY5Y cells [1]) was 119.27. For the same molecule, the “DQ Spot” value (SH-SY5Y cells [1]) was 99.65, the AK (SH-SY5Y cells [2]) was 190.42 and the “Nuclear Count” value (SH-SY5Y cells [3]) was 71.39.

For `Nc1ncnc2[nH]c(-c3ccccc3)nc12` [UNC10243863A], the TFEB % (endogenous TFEB) was 9.65%, the TFE3 % (endogenous TFE3) was 10.89% and the “DQ Intensity” value (SH-SY5Y cells [1]) was 154.91. For the same molecule, the “DQ Spot” value (SH-SY5Y cells [1]) was 119.26, the AK (SH-SY5Y cells [2]) was 85.62 and the “Nuclear Count” value (SH-SY5Y cells [3]) was 66.20.

For `Fc1cc(Cl)ccc1Nc1ccnc2cc(-c3ccc(CN4CCCCC4)o3)ccc12` [UNC10225220A], the TFEB % (endogenous TFEB) was 3.77%, the TFE3 % (endogenous TFE3) was 18.00% and the “DQ Intensity” value (SH-SY5Y cells [1]; DQ Red BSA intensity) was 113.72. For the same molecule, the “DQ Spot” value (SH-SY5Y cells [1]; DQ Red BSA spot count) was 129.26, the AK (SH-SY5Y cells [2]) was 82.41 and the “Nuclear Count” value (SH-SY5Y cells [3]) was 76.92.

`COc1cc(Nc2nccc(-c3c(-c4cccc(NC(=O)c5c(F)cccc5F)c4)nn4ccccc34)n2)cc(OC)c1OC` [UNC10225318A] was tested, and the TFEB % (endogenous TFEB) was 6.03%, the TFE3 % (endogenous TFE3) was 5.80% and the “DQ Intensity” value (SH-SY5Y cells [1]) was 105.65. The “DQ Spot” value (SH-SY5Y cells [1]) was 109.19, the AK (SH-SY5Y cells [2]) was 96.57 and the “Nuclear Count” value (SH-SY5Y cells [3]) was 94.38.

In the case of `Fc1ccc(-c2ncn(CCCN3CCOCC3)c2-c2ccccn2)cc1` [UNC10225382A], the TFEB % (endogenous TFEB) is reported as 3.28%, the TFE3 % (endogenous TFE3) is reported as 18.86% and the “DQ Intensity” value (SH-SY5Y cells [1]; DQ Red BSA intensity) is reported as 121.86. The “DQ Spot” value (SH-SY5Y cells [1]; DQ Red BSA spot count) was 115.12, the AK (SH-SY5Y cells [2]) was 83.54 and the “Nuclear Count” value (SH-SY5Y cells [3]) was 93.57.

With `Cl.Cl.c1ccc(-c2cc3ccncc3cc2OC2CCNCC2)cc1` [UNC10225463A] the TFEB % (endogenous TFEB) was 5.07%, the TFE3 % (endogenous TFE3) was 49.72% and the “DQ Intensity” value (SH-SY5Y cells [1]) was 117.87. The “DQ Spot” value (SH-SY5Y cells [1]) was 77.04, the AK (SH-SY5Y cells [2]) was 97.09 and the “Nuclear Count” value (SH-SY5Y cells [3]) was 112.69.

With `O=C(NCCCN1CCOCC1)c1cccc(Nc2nccc(Nc3ccc(Oc4ccccc4)cc3)n2)c1` [GW663929] the TFEB % (endogenous TFEB) was 4.62%, the TFE3 % (endogenous TFE3) was 16.30% and the “DQ Intensity” value (SH-SY5Y cells [1]; DQ Red BSA intensity) was 88.80. The “DQ Spot” value (SH-SY5Y cells [1]; DQ Red BSA spot count) was 80.91, the AK (SH-SY5Y cells [2]) was 108.46 and the “Nuclear Count” value (SH-SY5Y cells [3]) was 103.04.

`Cc1n[nH]c2ccc(-c3cc(OC[C@@H](N)Cc4ccccc4)cnc3-c3ccoc3)cc12.O=C(O)C(F)(F)F.O=C(O)C(F)(F)F` [UNC10225447A] was tested, and the TFEB % (endogenous TFEB) was 5.41%, the TFE3 % (endogenous TFE3) was 18.99% and the “DQ Intensity” value (SH-SY5Y cells [1]) was 66.58. For the same molecule, the “DQ Spot” value (SH-SY5Y cells [1]) was 65.23, the AK (SH-SY5Y cells [2]) was 97.39 and the “Nuclear Count” value (SH-SY5Y cells [3]) was 74.49.

In the case of `CC(C)c1nc(-c2cccc(NS(=O)(=O)c3c(F)cccc3F)c2)c(-c2ccnc(Nc3ccc(N4CCOCC4)nc3)n2)s1.Cl` [UNC10225142A], the TFEB % (endogenous TFEB) is reported as 18.86%, the TFE3 % (endogenous TFE3) is reported as 11.69% and the “DQ Intensity” value (SH-SY5Y cells [1]) is reported as 106.42. The “DQ Spot” value (SH-SY5Y cells [1]) was 109.80, the AK (SH-SY5Y cells [2]) was 81.90 and the “Nuclear Count” value (SH-SY5Y cells [3]) was 103.74.

`Nc1nc(-c2ccc3c(N)n[nH]c3c2)cc(N2CCC[C@@H](C(=O)Nc3ccccc3)C2)n1` [GSK2288359] was tested, and the TFEB % (endogenous TFEB) was 6.39%, the TFE3 % (endogenous TFE3) was 14.08% and the “DQ Intensity” value (SH-SY5Y cells [1]; DQ Red BSA intensity) was 83.69. The “DQ Spot” value (SH-SY5Y cells [1]; DQ Red BSA spot count) was 103.68, the AK (SH-SY5Y cells [2]) was 96.03 and the “Nuclear Count” value (SH-SY5Y cells [3]) was 88.88.

`FC(F)(F)c1ccccc1-c1cc(-c2c[nH]nc2-c2ccccn2)ccn1` [UNC10225184A] was tested, and the TFEB % (endogenous TFEB) was 5.60%, the TFE3 % (endogenous TFE3) was 4.50% and the “DQ Intensity” value (SH-SY5Y cells [1]; DQ Red BSA intensity) was 88.51. The “DQ Spot” value (SH-SY5Y cells [1]; DQ Red BSA spot count) was 92.76, the AK (SH-SY5Y cells [2]) was 124.66 and the “Nuclear Count” value (SH-SY5Y cells [3]) was 131.35.

With `Cc1c(Cn2c(C)c(C)n3c(=O)cc(N4CCOCC4)nc23)cccc1C(F)(F)F` [UNC10225225A] the TFEB % (endogenous TFEB) was 3.43%, the TFE3 % (endogenous TFE3) was 8.46% and the “DQ Intensity” value (SH-SY5Y cells [1]) was 84.00. The “DQ Spot” value (SH-SY5Y cells [1]) was 96.71, the AK (SH-SY5Y cells [2]) was 106.72 and the “Nuclear Count” value (SH-SY5Y cells [3]) was 111.32.
